Experimental findings from US11739077B2, “Small molecule inhibitors of ubiquitin specific protease 1 (USP1) and uses thereof” (Insilico Medicine IP Limited, priority 2021, dated 2023) are described below.

Each structure is given as a SMILES string. Bounds are passed on as bounds.

Assay [1] deals with Human recombinant USP1/UAF1 (Homo sapiens (Human), UniProt O94782). As to the kind of experiment: Enzymatic assay, USP1/UAF1 with Ubiquitin Rhodamine 110. It counts as biochemical. Particulars: 2 nM USP1/UAF1, 500 nM Ubiquitin Rhodamine 110, 15 minutes preincubation at RT. How it is done:
Human recombinant USP1/UAF1 expressed in baculovirus infected Sf21 cells were used (R&D, E-568-050). Test compound and/or vehicle was incubated with 2 nM of USP1/UAF1 in modified HEPES buffer pH 8.0 for 15 minutes at RT. The reaction was initiated by addition of 500 nM of Ubiquitin Rhodamine 110 (R&D, U-555-050) for kinetic reading. Slope change of fluorescence intensity was read spectrofluorimetrically at 485 nm/535 nm.

The subject of another assay is MDA-MB-436 cells. In words: MDA-MB-436 breast cancer cell proliferation assay (CellTiter-Glo). The following applies: 7 days. In kind it is cell-based. How it is done: MDA-MB-436 cells were grown in Leibovitz's L-15 medium with 10 ug/ml insulin, 16 ug/ml glutathione, 10% FBS. Cells were passaged at subconfluence after trypsinization and maintained in incubators at 37° C. in a humidified atmosphere with 5% CO2.
Cell proliferation was determined using CellTiter-Glo® Luminescent Cell Viability Assay (Promega, #G7573). MDA-MB-436 cells were seeded in 384-well plates and allowed to attach for 24 h. Compounds were added into 384-well plate by ECHO, and incubated at 37° C. in a humidified atmosphere with 5% CO2. After 7 days, CellTiter-Glo was added into 384 well plates, contents were mixed on an orbital shaker at […] for 2 min before centrifuging the plate for 2 min at 1000 rpm. After incubation at RT for 30 min, luminescence was read on envision.

Sequence of Human recombinant USP1/UAF1 (O94782 whole entry): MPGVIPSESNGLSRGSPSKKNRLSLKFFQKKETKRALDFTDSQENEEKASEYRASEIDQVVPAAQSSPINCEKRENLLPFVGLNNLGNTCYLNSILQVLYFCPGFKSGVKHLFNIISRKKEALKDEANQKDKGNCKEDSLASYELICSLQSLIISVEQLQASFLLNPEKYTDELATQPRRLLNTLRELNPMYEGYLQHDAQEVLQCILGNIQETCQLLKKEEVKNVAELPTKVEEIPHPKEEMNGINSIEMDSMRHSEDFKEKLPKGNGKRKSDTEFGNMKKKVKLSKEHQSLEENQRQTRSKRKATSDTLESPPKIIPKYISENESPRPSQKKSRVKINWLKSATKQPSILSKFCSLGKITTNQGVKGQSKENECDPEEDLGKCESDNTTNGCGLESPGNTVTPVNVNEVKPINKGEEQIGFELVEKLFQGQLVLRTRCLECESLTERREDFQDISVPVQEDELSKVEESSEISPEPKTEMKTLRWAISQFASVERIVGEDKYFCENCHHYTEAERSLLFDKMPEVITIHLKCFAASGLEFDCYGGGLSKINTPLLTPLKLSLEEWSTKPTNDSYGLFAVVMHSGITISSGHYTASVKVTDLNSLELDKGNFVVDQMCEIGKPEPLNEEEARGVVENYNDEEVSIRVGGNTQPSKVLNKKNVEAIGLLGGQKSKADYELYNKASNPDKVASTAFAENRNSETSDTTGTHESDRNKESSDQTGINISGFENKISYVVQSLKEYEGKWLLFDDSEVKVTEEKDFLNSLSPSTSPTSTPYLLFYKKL
Sequence of Human recombinant USP1/UAF1 (Q8TAF3 whole entry partner): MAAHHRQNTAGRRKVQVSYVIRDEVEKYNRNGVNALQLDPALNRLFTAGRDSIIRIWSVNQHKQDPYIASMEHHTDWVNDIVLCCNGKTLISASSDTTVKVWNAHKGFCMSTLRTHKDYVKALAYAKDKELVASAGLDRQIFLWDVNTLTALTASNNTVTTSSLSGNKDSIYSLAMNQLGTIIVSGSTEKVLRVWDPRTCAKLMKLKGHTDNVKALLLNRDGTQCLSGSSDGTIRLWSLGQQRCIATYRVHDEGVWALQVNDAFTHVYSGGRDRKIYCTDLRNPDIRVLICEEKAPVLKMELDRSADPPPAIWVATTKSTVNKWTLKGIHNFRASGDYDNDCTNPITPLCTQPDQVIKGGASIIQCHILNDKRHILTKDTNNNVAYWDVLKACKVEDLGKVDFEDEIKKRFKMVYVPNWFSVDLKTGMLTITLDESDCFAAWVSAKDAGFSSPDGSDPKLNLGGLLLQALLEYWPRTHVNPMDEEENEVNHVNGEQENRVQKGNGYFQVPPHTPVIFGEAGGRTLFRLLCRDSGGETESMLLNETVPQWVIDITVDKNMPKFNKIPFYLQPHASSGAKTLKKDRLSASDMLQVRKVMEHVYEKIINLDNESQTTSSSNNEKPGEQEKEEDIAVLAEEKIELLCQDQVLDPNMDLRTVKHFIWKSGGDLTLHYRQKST

Consider `COc1ncnc(C2CC2)c1-c1nn(C)c2c1CN(c1cnc(-c3nc(C(F)(F)F)cn3C)cn1)CC2` [Example 28, 3-(4-cyclopropyl-6-methoxypyrimidin-5-yl)-1-methyl-5-(5-(1-methyl-4-(trifluoromethyl)-1H-imidazol-2-yl)pyrazin-2-yl)-4,5,6,7-tetrahydro-1H-pyrazolo[4,3-c]pyridine], for which the IC50 in assay [1] is under 50 nM; in the assay on MDA-MB-436 cells (Homo sapiens, 168 h) it was under 50 nM.

Turning to `COc1ncnc(C2CC2)c1-c1nn(C)c2c1CN(c1ncc(-c3nc(C(F)(F)F)cn3C)cn1)CC2` [Example 27, 3-(4-cyclopropyl-6-methoxypyrimidin-5-yl)-1-methyl-5-(5-(1-methyl-4-(trifluoromethyl)-1H-imidazol-2-yl)pyrimidin-2-yl)-4,5,6,7-tetrahydro-1H-pyrazolo[4,3-c]pyridine], the IC50 in assay [1] was under 50 nM; with MDA-MB-436 cells (Homo sapiens, 168 h), under 50 nM.

Take `CCn1nc(-c2c(OC)ncnc2C2CC2)c2c1CCN(c1ccc(-c3nc(C(F)(F)F)cn3C)cn1)C2` [Example 16, 3-(4-cyclopropyl-6-methoxypyrimidin-5-yl)-1-ethyl-5-(5-(1-methyl-4-(trifluoromethyl)-1H-imidazol-2-yl)pyridin-2-yl)-4,5,6,7-tetrahydro-1H-pyrazolo[4,3-c]pyridine]: the IC50 fell in the range of 50 to 1000 nM in assay [1] and 50 to 1000 nM in the assay with MDA-MB-436 cells (Homo sapiens, 168 h).

`CCn1cc(C(F)(F)F)nc1-c1ccc(N2CCc3c(c(-c4c(OC)ncnc4C4CC4)nn3C)C2)nc1` [Example 25, 3-(4-cyclopropyl-6-methoxypyrimidin-5-yl)-5-(5-(1-ethyl-4-(trifluoromethyl)-1H-imidazol-2-yl)pyridin-2-yl)-1-methyl-4,5,6,7-tetrahydro-1H-pyrazolo[4,3-c]pyridine]: the IC50 in assay [1] was under 50 nM; with MDA-MB-436 cells (Homo sapiens, 168 h) it was under 50 nM.

Turning to `COc1ncnc(C2CC2)c1-c1nn(C)c2c1CN(c1ccc(-n3nc(C(F)(F)F)cc3C)cn1)CC2` [Example 15, 3-(4-cyclopropyl-6-methoxypyrimidin-5-yl)-1-methyl-5-(5-(5-methyl-3-(trifluoromethyl)-1H-pyrazol-1-yl)pyridin-2-yl)-4,5,6,7-tetrahydro-1H-pyrazolo[4,3-c]pyridine], the results for the IC50 (in assay [1]; in the assay on MDA-MB-436 cells) were under 50 nM and 50 to 1000 nM, respectively.

As for `[2H]C([2H])([2H])n1nc(-c2c(OC)ncnc2C2CC2)c2c1CCN(c1ccc(-c3nc(C(F)(F)F)cn3C)c(F)c1)C2` [Example 30, 3-(4-cyclopropyl-6-methoxypyrimidin-5-yl)-5-(3-fluoro-4-(1-methyl-4-(trifluoromethyl)-1H-imidazol-2-yl)phenyl)-1-(methyl-d3)-4,5,6,7-tetrahydro-1H-pyrazolo[4,3-c]pyridine], the IC50 was under 50 nM in assay [1] and under 50 nM with MDA-MB-436 cells (Homo sapiens, 168 h).

For the compound `[2H]C([2H])([2H])n1nc(-c2c(OC)ncnc2C2CC2)c2c1CCN(c1ccc(-c3nc(C(F)(F)F)cn3C)cn1)C2` [Example 18, 3-(4-cyclopropyl-6-methoxypyrimidin-5-yl)-1-(methyl-d3)-5-(5-(1-methyl-4-(trifluoromethyl)-1H-imidazol-2-yl)pyridin-2-yl)-4,5,6,7-tetrahydro-1H-pyrazolo[4,3-c]pyridine], the IC50 in assay [1] was under 50 nM; in the assay on MDA-MB-436 cells (Homo sapiens, 168 h), under 50 nM.

Regarding `COc1ncnc(C2CC2)c1-c1nn(C(F)F)c2c1CN(c1ccc(-c3nc(C(F)(F)F)cn3C)cc1)CC2` [Example 9, 3-(4-cyclopropyl-6-methoxypyrimidin-5-yl)-1-(difluoromethyl)-5-(4-(1-methyl-4-(trifluoromethyl)-1H-imidazol-2-yl)phenyl)-4,5,6,7-tetrahydro-1H-pyrazolo[4,3-c]pyridine], the IC50 in assay [1] was under 50 nM; in the assay on MDA-MB-436 cells (Homo sapiens, 168 h) it was under 50 nM.

`CC(C)c1ncccc1-c1nn(C)c2c1CN(c1ccc(-c3nc(C(F)(F)F)cn3C)cc1)CC2` [Example 1, 3-(2-isopropylpyridin-3-yl)-1-methyl-5-(4-(1-methyl-4-(trifluoromethyl)-1H-imidazol-2-yl)phenyl)-4,5,6,7-tetrahydro-1H-pyrazolo[4,3-c]pyridine]: the IC50 in assay [1] was under 50 nM; with MDA-MB-436 cells (Homo sapiens, 168 h), under 50 nM.

On to `COc1ncnc(C2CC2)c1-c1nn(C)c2c1CN(c1ccc(-c3nc(C(F)(F)F)cn3C)c(F)c1)CC2` [Example 8, 3-(4-cyclopropyl-6-methoxypyrimidin-5-yl)-5-(3-fluoro-4-(1-methyl-4-(trifluoromethyl)-1H-imidazol-2-yl)phenyl)-1-methyl-4,5,6,7-tetrahydro-1H-pyrazolo[4,3-c]pyridine], for which the IC50 in assay [1] is under 50 nM; with MDA-MB-436 cells (Homo sapiens, 168 h), under 50 nM.
